Measurements taken from patent US11117930B2, “Peptide inhibitors of transcription factor aggregation” (ADRX, INC., priority 2017, dated 2021).
Non-standard residues stand in square brackets, D forms with d. Residues, ends and D or L forms follow the SMILES beside them. NMeI = CC[C@H](C)[C@H](NC)C(=O)O

Target: Nat1 (LTIITLE (SEQ ID NO: 225)) (Homo sapiens, UniProt P04637)
Test: Thioflavin T aggregation assay (Nat1)
Format: biochemical
Settings: ThT fluorescence, 50 μM Nat1, pH6.0, room temperature, 2 hours
Method: The peptides of the invention were tested in an in vitro Thiofiavin T aggregation assay [see WO2014/182961]. An increase in Thioflavin T fluorescence is detected over time due to the formation of increasing amounts of amyloid to which the dye can specifically bind. […] For the Nat1 Stock Solution, Nat (LTIITLE (SEQ ID NO: 225), >95% Pure, TFA salt) is dissolved at 8 mM in 25 mM NaOH solution and kept at −80° C. Prior to the assay, it is diluted to 1 mM in H2O. The 2× Reaction Buffer is prepared with 200 mM Sodium Phosphate, pH6.0, 500 mM Sodium Chloride and 200 μM Thioflavin T (ThT). 100 μL of 2× reaction buffer and 80 μL of H2O are added to each well in black, clear-bottomed 96-well plate. Inhibitor peptides are dissolved in H2O to appropriate concentrations to produce 6-points dose response curves. 10 μL of dissolved peptide or H2O (control) is added to each reaction well. 10 μL of 1 mM Nat1 peptide is added to each reaction well (a final concentration of 50 μM). ThT fluorescence is monitored at room temperature every minute for 2 hours with excitation and emission wavelengths of 440 and 485 nm, respectively. IC50 values are calculated using Graphpad Prism.

| IC50 [nM] | Compound |
| --- | --- |
| 334 | CC[C@H](C)[C@@H](C(=O)N[C@@H](CCCCN)C(=O)N[C@@H](Cc1ccc(O)cc1)C(=O)N[C@@H](Cc1c[nH]cn1)C(=O)N[C@@H](CCCNC(=N)N)C(=O)O)N(C)C(=O)[C@H](CCCNC(=N)N)NC(=O)[C@@H](N)CC(C)C [LR(N-Me)IKYHR] (H-LR[NMeI]KYHR-OH; N-terminus and C-terminus assumed) |
| 69 | Ac-IRIRRYR-NH2 [Ac-IRIRRYR-NH2] |
